# Experiments:
# [1] = Liu et al., Bioorganic Med. Chem. (2008); rats; cited from earlier work
# [2] = biological target: T1, human 5-HT2B receptor (Homo sapiens, UniProt P41595); experiment: 5-HT2B agonist activity assay, IP1 production (HTRF) in CHO cells; assay type: cell-based
# T1 construct: host or cells: CHO
# Method: Evaluation of the agonist activity of compounds (I), (Ia) and (Ib) at the human 5-HT2B receptor was performed by Eurofins/Cerep (France) measuring the compound effects on inositol monophosphate (IP1) production using the HTRF detection method. Briefly, the human 5-HT2B receptor was expressed in transfected CHO cells. The cells were suspended in a buffer containing 10 mM Hepes/NaOH (pH 7.4), 4.2 mM KCl, 146 mM NaCl, 1 mM CaCl2, 0.5 mM MgCl2, 5.5 mM glucose and 50 mM LiCl, then distributed in microplates at a density of 4100 cells/well and incubated for 30 minutes at 37° C. in the presence of buffer (basal control), test compound or reference agonist. For stimulated control measurement, separate assay wells contained 1 μM 5-HT. Following incubation, the cells were lysed and the fluorescence acceptor (fluorophen D2-labeled IP1) and fluorescence donor (anti-IP1 antibody labeled with europium cryptate) were added. After 60 minutes at room temperature, the fluorescence transfer was measured at lambda(Ex) 337 nm and lambda(Em) 620 and 665 nm using a microplate reader (Rubystar, BMG). The IP1 concentration was determined by dividing the signal measured at 665 nm by that measured at 620 nm (ratio). The results were expressed as a percent of the control response to 1 μM 5-HT. […]
# [3] = PK experiments in Wistar rats, plasma compound (I) after oral dosing of prodrugs; assay type: in vivo, rat; conditions: FIG. 1, doses equal to 287 μg/kg of compound (I)
# Method: Plasma was placed on water-ice following collection. Final storage at approximately −70° C.
# Mobile phase B: Acetonitrile. […] Flow rate 0.5 mL/min.
# The rats had unrestricted access to the diet.
# Mobile phase B: Acetonitrile+0.2% formic acid. […] Flow rate 0.3 mL/min.
# Dosing and blood sampling for compound (Ic): Han Wistar rats were supplied by Envigo, UK. […] The rats received a standard laboratory diet Teklad 2014C. The rats had unrestricted access to the diet.
# [4] = man, after oral dosing; cited from earlier work
# T1 sequence (P41595 whole entry): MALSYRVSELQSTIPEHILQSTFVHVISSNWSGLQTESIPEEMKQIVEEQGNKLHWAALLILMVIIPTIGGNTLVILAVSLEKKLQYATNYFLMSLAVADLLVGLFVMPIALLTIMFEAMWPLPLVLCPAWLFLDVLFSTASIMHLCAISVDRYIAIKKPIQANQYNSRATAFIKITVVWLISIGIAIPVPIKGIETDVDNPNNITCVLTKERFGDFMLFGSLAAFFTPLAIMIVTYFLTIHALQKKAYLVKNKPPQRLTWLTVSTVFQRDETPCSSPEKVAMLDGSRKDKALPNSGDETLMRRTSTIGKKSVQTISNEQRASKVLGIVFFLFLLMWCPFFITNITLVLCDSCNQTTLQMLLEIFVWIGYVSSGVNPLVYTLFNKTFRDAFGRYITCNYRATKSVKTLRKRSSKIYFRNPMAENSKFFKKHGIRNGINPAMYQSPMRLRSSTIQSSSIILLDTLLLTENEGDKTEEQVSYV
smiles,measurement,setting,value
"CCCN1CCC[C@@H]2Cc3c(ccc(O)c3O)C[C@H]21 [Compound (I), (4aR,10aR)-1-Propyl-1,2,3,4,4a,5,10,10a-octahydro-benzo[g]quinoline-6,7-diol]","Oral bioavailability, in words",[1],low oral bioavailability
CCCN1CCC[C@@H]2CC3=C(CCCC3=O)C[C@H]21 [(Ia)],5-HT2B agonist effect at single concentration,"[2]; @ 30 μM, percent of control response to 1 μM 5-HT",58% @ 30 μM
same,"Plasma profile of compound (I) after oral dosing, in words",[3],early and high peak concentrations
CCCc1cc2c(s1)CN[C@@H]1CCc3cc(OC(C)=O)c(OC(C)=O)cc3[C@@H]21 [adrogolide],Oral bioavailability,[4],~4%
CCCN1CCC[C@@H]2Cc3c(ccc(OC(=O)C(C)(C)C)c3OC(=O)C(C)(C)C)C[C@H]21 [(Ic)],5-HT2B agonist effect at single concentration,[2]; @ 10 μM,−5% @ 10 μM
same,"Plasma profile of compound (I) after oral dosing, in words",[3],extremely low

# Source: patent US12421271B2, “Solid forms of (2S,3S,4S,5R,6S)-3,4,5-trihydroxy-6-(((4AR, 10AR)-7-hydroxy-1-propyl-1,2,3,4,4A,5,10,10A-octahydrobenzo[g]quinolin-6-yl)oxy)tetrahydro-2H-pyran-2-carboxylic acid” (H. Lundbeck A/S, priority 2019, dated 2025)
